Assay results taken from publication PMC10376059, “New NADPH Oxidase 2 Inhibitors Display Potent Activity against Oxidative Stress by Targeting p22^phox-p47^phox Interactions” (Antioxidants, 2023).

Experiments:
NADPH oxidase (NOX2) = target: T1, NADPH oxidase (NOX2) (Homo sapiens, UniProt P14598); experiment: NADPH oxidase activity by lucigenin chemiluminescence in HL-60 membrane preparations; type: biochemical; details: PMA 0.8 µM, compound 50 µM, vs control
T1 construct: HL-60 cells expressed the components of NOX2, including gp91, p22^phox, p47^phox, and p67^phox; endogenous in cells; whole cells in A1, membrane preparations in A3 and A4
T1 sequence (P14598 1-390): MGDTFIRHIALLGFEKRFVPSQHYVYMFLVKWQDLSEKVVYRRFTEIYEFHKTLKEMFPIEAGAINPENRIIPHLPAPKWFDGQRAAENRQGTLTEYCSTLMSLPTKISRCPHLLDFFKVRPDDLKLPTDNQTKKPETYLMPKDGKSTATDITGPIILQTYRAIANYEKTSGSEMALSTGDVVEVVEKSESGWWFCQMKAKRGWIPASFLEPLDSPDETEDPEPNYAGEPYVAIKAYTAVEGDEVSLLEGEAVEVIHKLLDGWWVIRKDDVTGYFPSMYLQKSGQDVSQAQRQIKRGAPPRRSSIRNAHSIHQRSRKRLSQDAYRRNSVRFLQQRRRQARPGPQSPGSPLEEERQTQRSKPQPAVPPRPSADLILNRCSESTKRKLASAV
Protocol: Neutrophil-differentiated HL-60 cells (2 × 10^6 cells/mL) were incubated at 37 °C in a humid atmosphere with 5% CO2 and 50 μM of the different acrylonitrile compounds, then PMA 0.8 μM was added and incubated for 1 h to induce the activation of the enzyme NADPH oxidase. As a positive inhibition control, VAS2870 (20 μM) was used. Another two controls were performed: one with cells activated by PMA in the presence of DMSO, and the other (NA, non-activated) with cells in the absence of PMA and the acrylonitrile compounds. In 15 mL conical tubes, 5 mL of cell suspension from each treatment and control condition was transferred at 2 × 10^6 cells/mL and centrifuged at 1000 rpm at 4 °C for 10 min. The supernatant was then discarded, and each pellet was re-suspended in 2 mL of a 4% PBS solution with 2 mM EGTA and 0.25 mM PMSF frozen at −80 °C for 10 min. Then each pellet was thawed on ice. […]
The chemiluminescence analysis of lucigenin derivatives was used to determine the activity of NADPH oxidase in a suspension of membrane preparations of HL-60 cells. […] Chemiluminescence was measured for 1 h at 2 min intervals with a Synnergy H1 hybrid luminometer multi-mode microplate reader and GEN5 program (Biotek Instruments, Inc., Winooski, VT, USA). […] The activity was expressed as relative units of luminescence per second, relative to the control.

[1] = tested on: cardiomyocytes isolated from mdx mice; experiment: NOX2-mediated ROS production (DCF-DA, confocal) in mdx cardiomyocytes; type: cell-based, mouse; details: 1 µM, vs control
Text: Cardiomyocytes were isolated from mdx mice (C57BL/10ScSn-DMDmdx/J, stock number 001801M, Jackson Laboratories, Bar Harbor, […], USA). Male mdx mice of 19 months of age were used, which were housed in individual cages with water and food ad libitum. All the procedures were adjusted to the “Guide for the Care and Use of Laboratory Animals” (1996) of the National Institute of Health and were approved by the Institutional Committee for Animal Care and Use of the Universidad de Talca. Mice were pre-medicated with heparin i.p. (200U.) and then sacrificed by cervical dislocation. The heart was rapidly removed, cannulated through the aorta, and retrogradely perfused in a steady flow (2 mL/min) at 37 °C. The hearts were initially perfused for 10 min with a Ca^2+-free bicarbonate buffer solution containing (in mM) 120 NaCl; 5.4 KCl; 1.2 MgSO4; 1.2 NaH2PO4; 5.6 glucose; 20 NaHCO3; 10 BDM, and 5 taurine, bubbled with a 95% O2–5% CO2 mixture. Enzyme digestion was performed with collagenase type II (1 mg/mL; Worthington Biochemical Corp., Lakewood, NJ, USA) and protease type XIV (0.1 mg/mL; Sigma-Aldrich) as previously reported. Isolated cardiomyocytes were transferred to 1.5 mL Eppendorf tubes and preincubated with the heteroaryl acrylonitrile compounds.
Cardiomyocytes isolated from mdx mice were transferred to Eppendorf tubes to be incubated with 1 μM of the indole heteroaryl-acrylonitrile derivatives for 30 min, protected from light, at room temperature. VAS2870 (20 μM) was used as a positive control for NOX2 inhibition. 2′,7′-dichlorofluorescein diacetate (DCF-DA) (10 μM) was then added and incubated for 15 min. Subsequently, it was allowed to sediment by gravity to remove the supernatant, and the pellets obtained were in a phosphate saline solution (PBS). 200 μL of the cell suspension were placed on pre-treated polylysine slides (Thermo Fischer, USA) and fixed with 2% paraformaldehyde (Sigma-Aldrich®, St. Louis, MO, USA) for 10 min at 4 °C. […] From the acquired images, the fluorescence intensity was quantified at 495 nm, and the data were reported as fluorescence intensity per pixel.

Compound | ROS production, lucigenin chemiluminescence (in words) (NADPH oxidase (NOX2)) | DCF fluorescence intensity, NOX2-derived ROS (in words) [1]
N#C/C(=C\c1cc(-c2ccccc2)on1)C(=O)c1c[nH]c2ccccc12 [Compound C6] | significantly reduce ROS production | significant decrease in fluorescence intensity
N#C/C(=C\c1ccncc1)C(=O)c1c[nH]c2ccccc12 [Compound C14] | significantly reduce ROS production | significant decrease in fluorescence intensity
